Measured values from patent publication US20260027116A1, “Methods of Treating Chronic Graft-Versus-Host Disease Following Allogeneic Hematopoietic Stem Cell Transplantation” (Kadmon Corporation, LLC, priority 2022, published 2026).
Entries after “also recorded” stand apart in the source; their conditions may differ. Where two headings read alike, the source gives them in different places.

System: patients with cGVHD
Description: All responses were assessed by the investigators.
Reported Adverse Events. […] All-cause mortality data collected during the study were assessed for all enrolled participants. Disease progression related death was not reported as AE.
Number of Participants With Treatment-emergent Adverse Events (TEAEs), and Treatment-emergent Serious Adverse Events (TESAEs). […] TEAEs included both SAEs and non-SAEs. […] Analysis was performed on safety population which included all participants who received at least 1 dose of study medication.

CC(C)NC(=O)COc1cccc(-c2nc(Nc3ccc4[nH]ncc4c3)c3ccccc3n2)c1 [Belumosudil, 2-{3-[4-(1H-indazol-5-ylamino)-2-quinazolinyl]phenoxy}-N-(propan-2-yl) acetamide]
Pleural effusion: Affected/At Risk (%) (Cohort 3 400 mg QD): 1/21 (4.76%)
Pneumonia respiratory syncytial viral: # Events (Cohort 3 400 mg QD): 0
Pneumonia respiratory syncytial viral: Affected/At Risk (%) (Cohort 3 400 mg QD): 0/21 (0%)
Pneumonia: # Events (Cohort 3 400 mg QD): 0
Pneumonia: Affected/At Risk (%) (Cohort 3 400 mg QD): 0/21 (0%)
Pollakiuria: # Events (Cohort 3 400 mg QD): 0
Pollakiuria: Affected/At Risk (%) (Cohort 3 400 mg QD): 0/21 (0%)
Presyncope: # Events (Cohort 3 400 mg QD): 0
Presyncope: Affected/At Risk (%) (Cohort 3 400 mg QD): 0/21 (0%)
Productive cough: # Events (Cohort 3 400 mg QD): 2
Productive cough: Affected/At Risk (%) (Cohort 3 400 mg QD): 1/21 (4.76%)
Proteinuria: # Events (Cohort 3 400 mg QD): 0
Proteinuria: Affected/At Risk (%) (Cohort 3 400 mg QD): 0/21 (0%)
Pruritus: # Events (Cohort 3 400 mg QD): 0
Pruritus: Affected/At Risk (%) (Cohort 3 400 mg QD): 0/21 (0%)
Pseudomonas infection: # Events (Cohort 3 400 mg QD): 0
Pseudomonas infection: Affected/At Risk (%) (Cohort 3 400 mg QD): 0/21 (0%)
Pulmonary mass: # Events (Cohort 3 400 mg QD): 1
Pulmonary mass: Affected/At Risk (%) (Cohort 3 400 mg QD): 1/21 (4.76%)
Pyrexia: # Events (Cohort 3 400 mg QD): 3
Pyrexia: Affected/At Risk (%) (Cohort 3 400 mg QD): 3/21 (14.29%)
Rash erythematous: # Events (Cohort 3 400 mg QD): 0
Rash erythematous: Affected/At Risk (%) (Cohort 3 400 mg QD): 0/21 (0%)
Rash maculo-papular: # Events (Cohort 3 400 mg QD): 0
Rash maculo-papular: Affected/At Risk (%) (Cohort 3 400 mg QD): 0/21 (0%)
Rash pustular: # Events (Cohort 3 400 mg QD): 0
Rash pustular: Affected/At Risk (%) (Cohort 3 400 mg QD): 0/21 (0%)
Rash: # Events (Cohort 3 400 mg QD): 1
Rash: Affected/At Risk (%) (Cohort 3 400 mg QD): 1/21 (4.76%)
Red blood cells urine positive: # Events (Cohort 3 400 mg QD): 0
Red blood cells urine positive: Affected/At Risk (%) (Cohort 3 400 mg QD): 0/21 (0%)
Renal failure: # Events (Cohort 3 400 mg QD): 0
Renal failure: Affected/At Risk (%) (Cohort 3 400 mg QD): 0/21 (0%)
Respiratory syncytial virus infection: # Events (Cohort 3 400 mg QD): 3
Respiratory syncytial virus infection: Affected/At Risk (%) (Cohort 3 400 mg QD): 2/21 (9.52%)
Respiratory tract infection fungal: # Events (Cohort 3 400 mg QD): 0
Respiratory tract infection fungal: Affected/At Risk (%) (Cohort 3 400 mg QD): 0/21 (0%)
Respiratory tract infection: # Events (Cohort 3 400 mg QD): 0
Respiratory tract infection: Affected/At Risk (%) (Cohort 3 400 mg QD): 0/21 (0%)
Restless legs syndrome: # Events (Cohort 3 400 mg QD): 0
Restless legs syndrome: Affected/At Risk (%) (Cohort 3 400 mg QD): 0/21 (0%)
Rosacea: # Events (Cohort 3 400 mg QD): 0
Rosacea: Affected/At Risk (%) (Cohort 3 400 mg QD): 0/21 (0%)
SAE, No. (%) (Cohort 3 400 mg QD): 12 (57)
Sinus pain: # Events (Cohort 3 400 mg QD): 0
Sinus pain: Affected/At Risk (%) (Cohort 3 400 mg QD): 0/21 (0%)
Sinusitis: # Events (Cohort 3 400 mg QD): 1
Sinusitis: Affected/At Risk (%) (Cohort 3 400 mg QD): 1/21 (4.76%)
Skin abrasion: # Events (Cohort 3 400 mg QD): 2
Skin abrasion: Affected/At Risk (%) (Cohort 3 400 mg QD): 2/21 (9.52%)
Skin lesion: # Events (Cohort 3 400 mg QD): 0
Skin lesion: Affected/At Risk (%) (Cohort 3 400 mg QD): 0/21 (0%)
Skin papilloma: # Events (Cohort 3 400 mg QD): 0
Skin papilloma: Affected/At Risk (%) (Cohort 3 400 mg QD): 0/21 (0%)
Spinal compression fracture: # Events (Cohort 3 400 mg QD): 0
Spinal compression fracture: Affected/At Risk (%) (Cohort 3 400 mg QD): 0/21 (0%)
Squamous cell carcinoma of skin: # Events (Cohort 3 400 mg QD): 0
Squamous cell carcinoma of skin: Affected/At Risk (%) (Cohort 3 400 mg QD): 0/21 (0%)
Stomatitis: # Events (Cohort 3 400 mg QD): 1
Stomatitis: Affected/At Risk (%) (Cohort 3 400 mg QD): 1/21 (4.76%)
Superior vena cava syndrome: # Events (Cohort 3 400 mg QD): 0
Superior vena cava syndrome: Affected/At Risk (%) (Cohort 3 400 mg QD): 1/21 (4.76%)
TEAE, participants (%) (Cohort 3 400 mg QD): 20 (95%) participants
TESAE, participants (%) (Cohort 3 400 mg QD): 13 (62%) participants
Tachycardia: # Events (Cohort 3 400 mg QD): 2
Tachycardia: Affected/At Risk (%) (Cohort 3 400 mg QD): 2/21 (9.52%)
Tendonitis: # Events (Cohort 3 400 mg QD): 0
Tendonitis: Affected/At Risk (%) (Cohort 3 400 mg QD): 0/21 (0%)
Testicular pain: # Events (Cohort 3 400 mg QD): 0
Testicular pain: Affected/At Risk (%) (Cohort 3 400 mg QD): 0/21 (0%)
Testicular swelling: # Events (Cohort 3 400 mg QD): 0
Testicular swelling: Affected/At Risk (%) (Cohort 3 400 mg QD): 0/21 (0%)
Thoracic spinal stenosis: # Events (Cohort 3 400 mg QD): 0
Thoracic spinal stenosis: Affected/At Risk (%) (Cohort 3 400 mg QD): 0/21 (0%)
Thrombocytopenia: # Events (Cohort 3 400 mg QD): 1
Thrombocytopenia: Affected/At Risk (%) (Cohort 3 400 mg QD): 1/21 (4.76%)
Thrombocytosis: # Events (Cohort 3 400 mg QD): 0
Thrombocytosis: Affected/At Risk (%) (Cohort 3 400 mg QD): 0/21 (0%)
Tinea pedis: # Events (Cohort 3 400 mg QD): 0
Tinea pedis: Affected/At Risk (%) (Cohort 3 400 mg QD): 0/21 (0%)
Tooth fracture: # Events (Cohort 3 400 mg QD): 0
Tooth fracture: Affected/At Risk (%) (Cohort 3 400 mg QD): 0/21 (0%)
Total other adverse events: Affected/At Risk (%) (Cohort 3 400 mg QD): 19/21 (90.48%)
Transfusion reaction: # Events (Cohort 3 400 mg QD): 0
Transfusion reaction: Affected/At Risk (%) (Cohort 3 400 mg QD): 0/21 (0%)
Tremor: # Events (Cohort 3 400 mg QD): 4
Tremor: Affected/At Risk (%) (Cohort 3 400 mg QD): 3/21 (14.29%)
Type 2 diabetes mellitus: # Events (Cohort 3 400 mg QD): 0
Type 2 diabetes mellitus: Affected/At Risk (%) (Cohort 3 400 mg QD): 0/21 (0%)
Ulcerative keratitis: # Events (Cohort 3 400 mg QD): 0
Ulcerative keratitis: Affected/At Risk (%) (Cohort 3 400 mg QD): 0/21 (0%)
Upper respiratory tract infection: # Events (Cohort 3 400 mg QD): 9
Upper respiratory tract infection: Affected/At Risk (%) (Cohort 3 400 mg QD): 7/21 (33.33%)
Upper-airway cough syndrome: # Events (Cohort 3 400 mg QD): 1
Upper-airway cough syndrome: Affected/At Risk (%) (Cohort 3 400 mg QD): 1/21 (4.76%)
Urinary retention: # Events (Cohort 3 400 mg QD): 0
Urinary retention: Affected/At Risk (%) (Cohort 3 400 mg QD): 0/21 (0%)
Urinary tract infection: # Events (Cohort 3 400 mg QD): 0
Urinary tract infection: Affected/At Risk (%) (Cohort 3 400 mg QD): 0/21 (0%)
Urinary tract pain: # Events (Cohort 3 400 mg QD): 1
Urinary tract pain: Affected/At Risk (%) (Cohort 3 400 mg QD): 1/21 (4.76%)
Urine output decreased: # Events (Cohort 3 400 mg QD): 0
Urine output decreased: Affected/At Risk (%) (Cohort 3 400 mg QD): 0/21 (0%)
Vascular access complication: # Events (Cohort 3 400 mg QD): 0
Vascular access complication: Affected/At Risk (%) (Cohort 3 400 mg QD): 0/21 (0%)
Vertigo: # Events (Cohort 3 400 mg QD): 0
Vertigo: Affected/At Risk (%) (Cohort 3 400 mg QD): 0/21 (0%)
Vision blurred: # Events (Cohort 3 400 mg QD): 4
Vision blurred: Affected/At Risk (%) (Cohort 3 400 mg QD): 4/21 (19.05%)
Vomiting: # Events (Cohort 3 400 mg QD): 4
Vomiting: Affected/At Risk (%) (Cohort 3 400 mg QD): 4/21 (19.05%)
Weight decreased: # Events (Cohort 3 400 mg QD): 4
Weight decreased: Affected/At Risk (%) (Cohort 3 400 mg QD): 2/21 (9.52%)
Weight increased: # Events (Cohort 3 400 mg QD): 4
Weight increased: Affected/At Risk (%) (Cohort 3 400 mg QD): 1/21 (4.76%)
White blood cell count decreased: # Events (Cohort 3 400 mg QD): 2
White blood cell count decreased: Affected/At Risk (%) (Cohort 3 400 mg QD): 1/21 (4.76%)
cytomegalovirus (CMV) infection or reactivation (Example 1): No cases; also recorded: no reported CMV infection or reactivation
deaths attributed to belumosudil (Example 1): none of the deaths attributed to belumosudil
dose response with respect to observed AEs (Example 1): no dose response
median duration of dose interruption (Example 1): 10 days
median duration of dose reduction (Example 1): 97 days
patients who discontinued because of potentially drug-related AEs (Example 1): Three
patients with dose interruptions (Example 1): 41%
patients with dose reductions (Example 1): 9%
tolerability (Example 1): well-tolerated
grade ≥3 cytopenias (Example 1, N=54): 4%
grade ≥3 dyspnea (Example 1, N=54): 13%
grade ≥3 hyperglycemia (Example 1, N=54): 7%
grade ≥3 hypoxia (Example 1, N=54): 7%
grade ≥3 increased liver function tests (Example 1, N=54): 7%
patients with a grade ≥3 AE (Example 1, N=54): Sixty-one
patients with cough (Example 1, N=54): 22%
patients with diarrhea (Example 1, N=54): 33%
patients with dyspnea (Example 1, N=54): 30%
patients with fatigue (Example 1, N=54): 33%
patients with headache (Example 1, N=54): 24%
patients with hypertension (Example 1, N=54): 20%
patients with increased liver function tests (Example 1, N=54): 33%
patients with nausea (Example 1, N=54): 33%
patients with peripheral edema (Example 1, N=54): 24%
patients with serious AEs (Example 1, N=54): 43%
patients with upper respiratory infection (Example 1, N=54): 46%
serious AE dyspnea (Example 1, N=54): 7%
serious AE hypoxia (Example 1, N=54): 4%
serious AE influenza-like illness (Example 1, N=54): 4%
serious AE lung infection (Example 1, N=54): 6%
patients who died during the study (Example 1, all in cohort 3): Four
All grade ALT/AST increased, No. (%) (Total, N=54): 18 (33)
All grade Cough, No. (%) (Total, N=54): 12 (22)
All grade Diarrhea, No. (%) (Total, N=54): 18 (33)
All grade Dyspnea, No. (%) (Total, N=54): 16 (30)
All grade Fatigue, No. (%) (Total, N=54): 18 (33)
All grade Headache, No. (%) (Total, N=54): 13 (24)
All grade Hypertension, No. (%) (Total, N=54): 11 (20)
All grade Nausea, No. (%) (Total, N=54): 18 (33)
All grade Peripheral edema, No. (%) (Total, N=54): 13 (24)
All grade URI, No. (%) (Total, N=54): 25 (46)
Any AE, No. (%) (Total, N=54): 53 (98)
Death, No. (%) (Total, N=54): 2 (4)
Drug-related AE, No. (%) (Total, N=54): 30 (56)
Drug-related SAE, No. (%) (Total, N=54): 0
Grade ≥3 AE, No. (%) (Total, N=54): 33 (61)
Grade ≥3 ALT/AST increased, No. (%) (Total, N=54): 4 (7)
Grade ≥3 Anemia, No. (%) (Total, N=54): 3 (6)
Grade ≥3 Dyspnea, No. (%) (Total, N=54): 7 (13)
Grade ≥3 Hyperglycemia, No. (%) (Total, N=54): 4 (7)
Grade ≥3 Hypoxia, No. (%) (Total, N=54): 4 (7)
Grade ≥3 Lung infection or pneumonia, No. (%) (Total, N=54): 5 (9)
SAE, No. (%) (Total, N=54): 23 (43)
